US8772319B2 (priority 2004, dated 2014)
Like-named read-outs stand apart in the source and are kept apart here.

Tests used:
[1] = molecular target: T1, human serotonin transporter (hSERT) (Homo sapiens, UniProt P31645); assay: cell-based
[2] = molecular target: T2, human norepinephrine transporter (hNET) (Homo sapiens, UniProt P23975); assay: biochemical; conditions: [125I]RTI-55, read-out: NET binding affinity Ki
[3] = molecular target: T3, human dopamine transporter (hDAT) (Homo sapiens, UniProt Q01959); assay: cell-based
[4] = molecular target: T1, human serotonin transporter (hSERT); assay: biochemical; conditions: [125I]RTI-55, read-out: SERT binding affinity Ki
[5] = molecular target: T3, human dopamine transporter (hDAT); assay: biochemical; assay type: binding
[6] = molecular target: T2, human norepinephrine transporter (hNET); assay: cell-based; conditions: read-out: Reuptake Inhibition [3H]NE IC50
[7] = Reuptake Inhibition [3H]5-HT IC50, Table 1-1
[8] = Reuptake Inhibition [3H]DA IC50, Table 1-1
[9] = Reuptake Inhibition [3H]5-HT IC50, Table 2-1
[10] = Reuptake Inhibition [3H]DA IC50, Table 2-1
[11] = Table 4-1, read-out: Reuptake Inhibition [3H]5-HT IC50
[12] = Table 4-1, read-out: Reuptake Inhibition [3H]DA IC50
[13] = Table 4, [125I]RTI-55, read-out: DAT binding affinity Ki

T1 sequence (P31645 whole entry): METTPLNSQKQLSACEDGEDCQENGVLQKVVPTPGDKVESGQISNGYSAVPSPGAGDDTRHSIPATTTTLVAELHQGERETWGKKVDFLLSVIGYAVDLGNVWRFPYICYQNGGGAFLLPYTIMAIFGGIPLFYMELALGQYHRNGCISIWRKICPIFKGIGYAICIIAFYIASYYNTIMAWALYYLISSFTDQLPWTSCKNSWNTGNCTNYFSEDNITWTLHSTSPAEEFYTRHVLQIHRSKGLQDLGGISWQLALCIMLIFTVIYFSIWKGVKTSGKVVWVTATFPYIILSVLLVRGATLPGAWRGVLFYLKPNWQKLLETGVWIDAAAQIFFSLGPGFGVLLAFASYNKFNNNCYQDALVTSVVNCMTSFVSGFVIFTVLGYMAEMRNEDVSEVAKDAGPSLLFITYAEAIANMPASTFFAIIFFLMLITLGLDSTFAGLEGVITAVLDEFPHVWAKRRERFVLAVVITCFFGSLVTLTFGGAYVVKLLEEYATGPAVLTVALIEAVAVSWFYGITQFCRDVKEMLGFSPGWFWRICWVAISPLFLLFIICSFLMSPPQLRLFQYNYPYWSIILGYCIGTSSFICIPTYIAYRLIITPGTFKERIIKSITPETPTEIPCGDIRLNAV
T3 sequence (Q01959 whole entry): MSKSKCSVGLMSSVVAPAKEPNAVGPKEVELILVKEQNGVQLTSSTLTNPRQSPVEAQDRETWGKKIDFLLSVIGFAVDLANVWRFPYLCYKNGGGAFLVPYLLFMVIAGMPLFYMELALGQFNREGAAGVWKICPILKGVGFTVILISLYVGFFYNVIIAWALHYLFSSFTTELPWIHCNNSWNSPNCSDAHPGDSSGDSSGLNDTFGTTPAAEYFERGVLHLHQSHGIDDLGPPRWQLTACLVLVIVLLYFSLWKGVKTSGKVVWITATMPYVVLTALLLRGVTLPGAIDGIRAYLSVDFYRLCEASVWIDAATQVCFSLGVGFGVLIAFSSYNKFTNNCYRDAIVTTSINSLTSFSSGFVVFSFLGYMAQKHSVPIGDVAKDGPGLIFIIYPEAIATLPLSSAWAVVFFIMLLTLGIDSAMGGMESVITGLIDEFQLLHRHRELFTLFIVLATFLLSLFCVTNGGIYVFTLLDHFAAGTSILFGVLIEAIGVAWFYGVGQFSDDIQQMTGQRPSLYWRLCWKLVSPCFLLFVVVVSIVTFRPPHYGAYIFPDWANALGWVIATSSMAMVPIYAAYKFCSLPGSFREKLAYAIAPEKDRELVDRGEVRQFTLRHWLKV
T2 sequence (P23975 whole entry): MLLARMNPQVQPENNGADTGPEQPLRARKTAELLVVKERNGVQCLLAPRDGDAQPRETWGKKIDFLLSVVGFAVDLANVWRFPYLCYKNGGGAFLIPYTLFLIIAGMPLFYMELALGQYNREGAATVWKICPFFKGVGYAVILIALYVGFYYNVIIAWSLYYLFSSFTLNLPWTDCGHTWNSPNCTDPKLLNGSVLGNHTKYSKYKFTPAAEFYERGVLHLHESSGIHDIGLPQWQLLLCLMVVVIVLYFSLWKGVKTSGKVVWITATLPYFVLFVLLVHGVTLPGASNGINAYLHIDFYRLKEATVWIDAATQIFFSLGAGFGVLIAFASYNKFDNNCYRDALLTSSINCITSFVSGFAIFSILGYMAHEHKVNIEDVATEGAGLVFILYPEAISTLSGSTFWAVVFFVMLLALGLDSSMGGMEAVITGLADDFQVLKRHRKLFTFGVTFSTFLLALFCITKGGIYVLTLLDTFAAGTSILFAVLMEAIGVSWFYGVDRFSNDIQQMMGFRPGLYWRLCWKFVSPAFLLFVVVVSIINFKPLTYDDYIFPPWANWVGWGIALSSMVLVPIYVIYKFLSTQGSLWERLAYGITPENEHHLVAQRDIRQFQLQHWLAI

Fc1ccc(C(OCCCCN2CCNCC2)c2ccc(F)cc2)cc1 [Compound 3]
IC50 ([1]; Table 6, read-out: Reuptake Inhibition [3H]5-HT IC50): 2170 ± 78 nM
Ki ([2]; Table 5, oxalate salts): 3400 ± 1500 nM
Discrimination Ratios (DR) [3H]DA reuptake/DAT binding ([3]; Table 6): 1.7
IC50 ([3]; Table 6, read-out: Reuptake Inhibition [3H]DA IC50): 1 ± 0.19 µM
Ki ([4]; Table 5, oxalate salts): 1.9 ± 0.33 µM
Binding Ratios NET/DAT ([5]; Table 5): 5.7
Binding Ratios SERT/DAT ([5]; Table 5): 3.2
Ki ([5]; Table 5, [125I]RTI-55, oxalate salts, read-out: DAT binding affinity Ki): 600 ± 190 nM
IC50 ([6]; Table 6): 850 ± 270 nM

O=C(Nc1ccc(F)cc1)N1CCN(CCCCOC(c2ccc(F)cc2)c2ccc(F)cc2)CC1 [Compound 4]
IC50 [1, 7]: 68 ± 28 nM
Ki ([2]; Table 1): 133 ± 18 nM
IC50 [3, 8]: 0.009 ± 0.003 µM
Discrimination Ratios [3H]DA reuptake/DAT binding ([3]; Table 1-1): 0.2
Ki ([4]; Table 1): 0.014 ± 0.006 µM
Ki [5]: 60 ± 8 nM
Binding Ratios NET/DAT ([5]; Table 1): 2.2
Binding Ratios SERT/DAT ([5]; Table 1): 0.2
IC50 ([6]; Table 1-1): 45 ± 17 nM

O=C(NCc1ccc(F)cc1)N1CCN(CCCCOC(c2ccc(F)cc2)c2ccc(F)cc2)CC1 [Compound 5]
IC50 [1, 7]: 6 ± 1 nM
Ki ([2]; Table 1): 706 ± 153 nM
IC50 [3, 8]: 0.053 ± 0.022 µM
Discrimination Ratios [3H]DA reuptake/DAT binding ([3]; Table 1-1): 0.1
Ki ([4]; Table 1): 0.275 ± 0.021 µM
Ki [5]: 437 ± 12 nM
Binding Ratios NET/DAT ([5]; Table 1): 1.6
Binding Ratios SERT/DAT ([5]; Table 1): 0.2
IC50 ([6]; Table 1-1): 51 ± 4 nM

Fc1ccc(C(OCCCCN2CCN(C(=S)Nc3cccnc3)CC2)c2ccc(F)cc2)cc1 [Compound 6]
IC50 [1, 7]: 308 ± 102 nM
Ki ([2]; Table 1): 2450 ± 367 nM
IC50 [3, 8]: 0.097 ± 0.019 µM
Discrimination Ratios [3H]DA reuptake/DAT binding ([3]; Table 1-1): 0.6
Ki ([4]; Table 1): 1.08 ± 0.3 µM
Ki [5]: 170 ± 24 nM
Binding Ratios NET/DAT ([5]; Table 1): 14.4
Binding Ratios SERT/DAT ([5]; Table 1): 6.4
IC50 ([6]; Table 1-1): 359 ± 108 nM

O=C(NS(=O)(=O)c1ccc(F)cc1)N1CCN(CCCCOC(c2ccc(F)cc2)c2ccc(F)cc2)CC1 [Compound 7]
IC50 ([1]; Table 1-1, read-out: Reuptake Inhibition [3H]5-HT IC50): 1620 ± 769 nM
Ki ([2]; Table 1): 2690 ± 258 nM
Discrimination Ratios [3H]DA reuptake/DAT binding ([3]; Table 1-1): 0.6
IC50 ([3]; Table 1-1, read-out: Reuptake Inhibition [3H]DA IC50): 0.206 ± 0.064 µM
Ki ([4]; Table 1): 3.16 ± 0.666 µM
Binding Ratios NET/DAT ([5]; Table 1): 8.1
Binding Ratios SERT/DAT ([5]; Table 1): 9.5
Ki ([5]; Table 1, [125I]RTI-55, read-out: DAT binding affinity Ki): 334 ± 25 nM
IC50 ([6]; Table 1-1): 836 ± 93 nM

O=C(Nc1ccc(-c2ccccc2)cc1)N1CCN(CCCCOC(c2ccc(F)cc2)c2ccc(F)cc2)CC1 [Compound 8]
IC50 [1, 7]: 1020 ± 320 nM
Ki ([2]; Table 1): 6940 nM
IC50 [3, 8]: 0.419 ± 0.034 µM
Discrimination Ratios [3H]DA reuptake/DAT binding ([3]; Table 1-1): 6.3
Ki ([4]; Table 1, bound given in μM): > 10 µM
Ki ([4]; Table 1): > 10 µM
Ki [5]: 67 nM
Binding Ratios NET/DAT ([5]; Table 1): 104
Binding Ratios SERT/DAT ([5]; Table 1): >149
IC50 ([6]; Table 1-1): 56.3 ± 9.4 nM

NCC1CCCN(CCCCOC(c2ccc(F)cc2)c2ccc(F)cc2)C1 (stereo not drawn) [Compound 10]
IC50 [1, 9]: 571 ± 127 nM
Ki ([2]; Table 2): 537 ± 112 nM
IC50 [3, 10]: 0.031 µM
Discrimination Ratios [3H]DA reuptake/DAT binding ([3]; Table 2-1): 0.3
Ki ([4]; Table 2): 0.883 µM
Ki [5]: 113 nM
Binding Ratios NET/DAT ([5]; Table 2): 4.8
Binding Ratios SERT/DAT ([5]; Table 2): 7.8

O=C(NCC1CCCN(CCCCOC(c2ccc(F)cc2)c2ccc(F)cc2)C1)c1cccc(C(F)(F)F)c1 (stereo not drawn) [Compound 11]
IC50 [1, 9]: 511 nM
Ki ([2]; Table 2): 49 ± 21 nM
IC50 [3, 10]: 0.046 µM
Discrimination Ratios [3H]DA reuptake/DAT binding ([3]; Table 2-1): 0.1
Ki ([4]; Table 2): 0.496 ± 0.177 µM
Ki [5]: 403 ± 81 nM
Binding Ratios NET/DAT ([5]; Table 2): 0.1
Binding Ratios SERT/DAT ([5]; Table 2): 1.2
IC50 ([6]; Table 2-1): 53 ± 3 nM

O=C(NCC1CCCN(CCCCOC(c2ccc(F)cc2)c2ccc(F)cc2)C1)Nc1ccc(F)cc1 (stereo not drawn) [Compound 12]
IC50 [1, 9]: 123 ± 16 nM
Ki ([2]; Table 2): 99 nM
IC50 [3, 10]: 0.092 ± 0.024 µM
Discrimination Ratios [3H]DA reuptake/DAT binding ([3]; Table 2-1): 1.0
Ki ([4]; Table 2): 0.198 µM
Ki [5]: 93 nM
Binding Ratios NET/DAT ([5]; Table 2): 1.1
Binding Ratios SERT/DAT ([5]; Table 2): 2.1
IC50 ([6]; Table 2-1): 20 nM

O=C(NCc1ccc(F)cc1)NCC1CCCN(CCCCOC(c2ccc(F)cc2)c2ccc(F)cc2)C1 (stereo not drawn) [Compound 13]
IC50 [1, 9]: 177 ± 18 nM
Ki ([2]; Table 2): 60 nM
IC50 [3, 10]: 0.085 ± 0.039 µM
Discrimination Ratios [3H]DA reuptake/DAT binding ([3]; Table 2-1): 0.4
Ki ([4]; Table 2): 0.545 ± 0.194 µM
Ki [5]: 203 ± 68 nM
Binding Ratios NET/DAT ([5]; Table 2): 0.3
Binding Ratios SERT/DAT ([5]; Table 2): 2.7
IC50 ([6]; Table 2-1): 136 ± 32 nM

O=C(Nc1ccc(F)cc1)NC1CCN(CCCCOC(c2ccc(F)cc2)c2ccc(F)cc2)CC1 [Compound 17]
IC50 ([1]; Reuptake Inhibition [3H]5-HT IC50, Table 3-1): 7140 nM
Ki ([2]; Table 3): 430 ± 100 nM
IC50 ([3]; Reuptake Inhibition [3H]DA IC50, Table 3-1): 7 ± 1.79 µM
Discrimination Ratios [3H]DA reuptake/DAT binding ([3]; Table 3-1): 219
Ki ([4]; Table 3): 0.279 ± 0.057 µM
Ki [5]: 32 ± 1.4 nM
Binding Ratios NET/DAT ([5]; Table 3): 13.4
Binding Ratios SERT/DAT ([5]; Table 3): 8.7
IC50 ([6]; Table 3-1): 2530 nM

NCC1(c2ccccc2)CCN(CCCCOC(c2ccc(F)cc2)c2ccc(F)cc2)CC1 [Compound 21]
IC50 [1, 11]: 337 ± 128 nM
Discrimination Ratios [3H]DA reuptake/DAT binding ([3]; Table 4-1): 1.1
IC50 [3, 12]: 0.155 µM
Ki ([4]; Table 4): 0.347 ± 0.152 µM
Binding Ratios SERT/DAT ([5]; Table 4): 2.5
Ki [5, 13]: 140 ± 53 nM

O=C(NCC1(c2ccccc2)CCN(CCCCOC(c2ccc(F)cc2)c2ccc(F)cc2)CC1)Nc1ccc(F)cc1 [Compound 22]
IC50 [1, 11]: 367 ± 62 nM
Discrimination Ratios [3H]DA reuptake/DAT binding ([3]; Table 4-1): 120.5
IC50 ([3]; Table 4-1, bound given in μM, read-out: Reuptake Inhibition [3H]DA IC50): > 10 µM
Ki ([4]; Table 4): 0.234 µM
Ki [5]: 83 nM
Binding Ratios SERT/DAT ([5]; Table 4): 2.8

CC(=O)NCC1(c2ccccc2)CCN(CCCCOC(c2ccc(F)cc2)c2ccc(F)cc2)CC1 [Compound 23]
IC50 [1, 11]: 359 ± 78 nM
Discrimination Ratios [3H]DA reuptake/DAT binding ([3]; Table 4-1): 0.8
IC50 [3, 12]: 0.129 ± 0.032 µM
Ki ([4]; Table 4): 0.258 ± 0.076 µM
Binding Ratios SERT/DAT ([5]; Table 4): 1.5
Ki [5, 13]: 172 ± 14 nM

O=C(CCN1C(=O)C=CC1=O)NCC1(c2ccccc2)CCN(CCCCOC(c2ccc(F)cc2)c2ccc(F)cc2)CC1 [Compound 25]
IC50 [1, 11]: 3120 ± 1470 nM
Discrimination Ratios [3H]DA reuptake/DAT binding ([3]; Table 4-1): 1.2
IC50 [3, 12]: 0.988 ± 0.305 µM
Ki ([4]; Table 4): 6.4 ± 2.68 µM
Binding Ratios SERT/DAT ([5]; Table 4): 7.7
Ki [5, 13]: 827 ± 197 nM

O=C(CCl)NCC1(c2ccccc2)CCN(CCCCOC(c2ccc(F)cc2)c2ccc(F)cc2)CC1 [Compound 26]
IC50 [1, 11]: 270 nM
Discrimination Ratios [3H]DA reuptake/DAT binding ([3]; Table 4-1): 1.5
IC50 [3, 12]: 0.486 ± 0.25 µM
Ki ([4]; Table 4): 0.58 ± 0.177 µM
Binding Ratios SERT/DAT ([5]; Table 4): 1.8
Ki [5, 13]: 316 ± 77 nM

Fc1ccc(C(OCCCCN2CCN(c3ccc(F)cc3)CC2)c2ccc(F)cc2)cc1 [Compound 31, 1-(4-Fluorophenyl)-4-[4-[bis(4-fluorophenyl)methoxy]butyl]piperazine]
Discrimination Ratios (DR) [3H]DA reuptake/DAT binding ([3]; Table 6): 23
Binding Ratios NET/DAT ([5]; Table 5): 7.8
Binding Ratios SERT/DAT ([5]; Table 5): 1.3

Fc1ccc(C(OCCCCN2CCN(c3cccc(Cl)c3)CC2)c2ccc(F)cc2)cc1 [Compound 33, 1-(3-Chlorophenyl)-4-[4-[bis(4-fluorophenyl)methoxy]butyl]piperazine]
Discrimination Ratios (DR) [3H]DA reuptake/DAT binding ([3]; Table 6): 9.5
Binding Ratios NET/DAT ([5]; Table 5): 1.7
Binding Ratios SERT/DAT ([5]; Table 5): 0.8
